# Results taken from patent US20220378706A1, “PHARMACEUTICAL COMPOSITION COMPRISING PDE9 INHIBITOR” (Eisai R&D Management Co., Ltd., priority 2017, published 2022).
# What was measured:
# PDE9 = PDE9 (Homo sapiens, UniProt O76083); details: WO2013/051369, WO2014/163147; cited from earlier work
# [1] = tested on: cGMP in the cerebrospinal fluid; assay: CSF cGMP elevation in rats; format: in vivo; details: rat, scopolamine
# Description: cGMP in the cerebrospinal fluid (hereinafter referred to as “CSF cGMP”) elevation in each sample was measured according to the method described in WO2013/051639.
# [2] = Single dose clinical study Parts A and C: urine Compound A pharmacokinetics; format: in vivo, human; details: for CL renal: human, po
# Description: Urine Compound A concentrations were analyzed predose and up to 96 hours postdose.
# Plasma, urine and CSF concentrations of Compound A were measured using validated liquid chromatography mass spectrometry/mass spectrometry (LC MS/MS) assay methods. CSF concentrations of cGMP were measured using a validated LC-MS/MS assay method.
# The following PK parameters were calculated for Compound A: […]
# [3] = Elderly subjects Part C, single oral 100 mg
# [4] = healthy adults Part A, single oral 10 mg
# [5] = healthy adults Part A, single oral 25 mg
# [6] = healthy adults Part A, single oral 50 mg
# [7] = healthy adults Part A, single oral 100 mg
# [8] = healthy adults Part A, single oral 200 mg
# [9] = healthy adults Part A, single oral 400 mg
# [10] = healthy adults Part A, single oral 800 mg
# [11] = healthy adults Part A, single oral 1200 mg
# PDE9, sequence (O76083 whole entry): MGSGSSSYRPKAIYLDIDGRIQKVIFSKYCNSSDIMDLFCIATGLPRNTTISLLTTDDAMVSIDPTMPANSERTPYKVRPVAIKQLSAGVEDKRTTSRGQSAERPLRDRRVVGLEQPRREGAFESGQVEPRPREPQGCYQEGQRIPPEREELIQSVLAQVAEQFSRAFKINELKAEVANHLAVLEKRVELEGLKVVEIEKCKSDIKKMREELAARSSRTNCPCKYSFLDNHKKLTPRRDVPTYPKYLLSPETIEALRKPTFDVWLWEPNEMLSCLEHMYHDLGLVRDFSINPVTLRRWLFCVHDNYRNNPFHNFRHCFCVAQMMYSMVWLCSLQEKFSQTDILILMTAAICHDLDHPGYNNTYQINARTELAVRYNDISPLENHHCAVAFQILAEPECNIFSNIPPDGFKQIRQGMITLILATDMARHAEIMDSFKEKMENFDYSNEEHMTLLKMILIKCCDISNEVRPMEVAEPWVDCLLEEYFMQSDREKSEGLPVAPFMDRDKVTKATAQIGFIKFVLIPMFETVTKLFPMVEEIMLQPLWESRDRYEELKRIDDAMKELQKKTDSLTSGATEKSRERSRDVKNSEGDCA
smiles,measurement,setting,value
"COc1ncc(C)c(-c2ccc3c(c2)[nH]c(=O)c2cnn([C@H]4CCOC4)c23)c1C [Compound A, (S)-7-(2-methoxy-3,5-dimethylpyridin-4-yl)-1-(tetrahydrofuran-3-yl)-1H-pyrazolo[4,3-c]quin olin-4(5H)-one]",PDE9 inhibitory activity,PDE9,known to have a PDE9 inhibitory activity
same,% CSF cGMP increase from vehicle control,[1]; 3.3 mg/kg oral,(90) %
same,CSF cGMP conc.,[1]; 3.3 mg/kg oral,3.694 ± 0.65 nM
same,% CSF cGMP increase from vehicle control,[1]; 10 mg/kg oral,(152) %
same,CSF cGMP conc.,[1]; 10 mg/kg oral,4.889 ± 0.538 nM
same,Ae(0-96 h) GM,[2]; [3],0.228 mg
same,Fe(0-96 h) GM,[2]; [3],0.228%
same,Ae(0-96 h) GM,[2]; [4],0.0218 mg
same,Fe(0-96 h) GM,[2]; [4],0.218%
same,Ae(0-96 h) GM,[2]; [5],0.0476 mg
same,Fe(0-96 h) GM,[2]; [5],0.190%
same,Ae(0-96 h) GM,[2]; [6],0.104 mg
same,Fe(0-96 h) GM,[2]; [6],0.208%
same,Ae(0-96 h) GM,[2]; [7],0.295 mg
same,Fe(0-96 h) GM,[2]; [7],0.295%
same,Ae(0-96 h) GM,[2]; [8],0.177 mg
same,Fe(0-96 h) GM,[2]; [8],0.0885%
same,Ae(0-96 h) GM,[2]; [9],0.615 mg
same,Fe(0-96 h) GM,[2]; [9],0.154%
same,Ae(0-96 h) GM,[2]; [10],0.762 mg
same,Fe(0-96 h) GM,[2]; [10],0.0953%
same,Ae(0-96 h) GM,[2]; [11],1.18 mg
same,Fe(0-96 h) GM,[2]; [11],0.0979%
same,CL renal,"[2]; 10 mg, healthy adults Part A, single oral 10 mg",0.228 mL/min
same,CL renal,"[2]; 25 mg, healthy adults Part A, single oral 25 mg",0.202 mL/min
same,CL renal,"[2]; 50 mg, healthy adults Part A, single oral 50 mg",0.268 mL/min
same,CL renal,"[2]; 100 mg, Elderly subjects Part C, single oral 100 mg",0.22 mL/min
same,CL renal,"[2]; 100 mg, healthy adults Part A, single oral 100 mg",0.37 mL/min
same,CL renal,"[2]; 200 mg, healthy adults Part A, single oral 200 mg",0.17 mL/min
same,CL renal,"[2]; 400 mg, healthy adults Part A, single oral 400 mg",0.337 mL/min
same,CL renal,"[2]; 800 mg, healthy adults Part A, single oral 800 mg",0.212 mL/min
same,CL renal,"[2]; 1200 mg, healthy adults Part A, single oral 1200 mg",0.287 mL/min
